Assay results reported in patent publication US11555009B2, “2-(substituted benzene matrix) aromatic formate FTO inhibitor, preparation method therefor, and applications thereof” (SHANGHAI INSTITUTE OF MATERIA MEDICA, CHINESE ACADEMY OF …, priority 2017, dated 2023).
pIC50: −log10 of the molar value. Where two headings read alike, the source gives them in different places.

Legend:
[1] = system: human small cell lung cancer cell lines (SCLC-21H); test: MTS cytotoxicity on SCLC-21H cells; format: cell-based; conditions: for pIC50: read-out: Cytotoxicity on cell line SCLC (IC50)
Method: (§1) The following was a study of the cytotoxicity study of compound of 2-(substituted phenylhetero)aromatic formic acid of formula (I) and its derivatives as FTO inhibitors on solid tumors including human small cell lung cancer cell lines (SCLC-21H), human bone marrow rhabdomyosarcoma cell line (RH30) and pancreatic cancer cell Line (KP3):
(§2) SCLC-21H, RH30 and KP3 solid tumor cell lines were cultivated separately, and seeded at 5000 cells per well in 96 well plates. The cells were cultured until the cells were adherent, and different compounds were added and the cultivation was continued for 72 hours. 10 uL of MTS solution was directly added and the mixture was incubated for 4 h, and the absorbance was measured at 490 nm. The inhibition rate was calculated by using the DMSO group as a control.

[2] = system: pancreatic cancer cell Line (KP3); test: MTS cytotoxicity on KP3 cells; format: cell-based
Method: as §1, §2

[3] = system: human bone marrow rhabdomyosarcoma cell line (RH30); test: MTS cytotoxicity on RH30 cells; format: cell-based
Method: as §1, §2

FTO = FTO (Homo sapiens (Human), UniProt Q9C0B1); test: FTO enzyme inhibition (m6A dsDNA substrate, DpnII digestion, gel readout); format: biochemical; conditions: for Inhibition rate: in vitro inhibition rate on FTO, compound at 50 μM
Method: High purity FTO protein was obtained by nickel column affinity chromatography purification.
After incubation at room temperature for 2 hrs, the reaction system was then slowly heated to 65° C. to inactivate, and 1 μM 39 nt of antisense strand DNA was added to anneal, thereby forming double strands. […] After Gel-Red dyeing, photos were taken with gel imaging system. The obtained band was subjected to gray scale reading to obtain inhibition rate.

Chain of FTO (Q9C0B1 whole entry): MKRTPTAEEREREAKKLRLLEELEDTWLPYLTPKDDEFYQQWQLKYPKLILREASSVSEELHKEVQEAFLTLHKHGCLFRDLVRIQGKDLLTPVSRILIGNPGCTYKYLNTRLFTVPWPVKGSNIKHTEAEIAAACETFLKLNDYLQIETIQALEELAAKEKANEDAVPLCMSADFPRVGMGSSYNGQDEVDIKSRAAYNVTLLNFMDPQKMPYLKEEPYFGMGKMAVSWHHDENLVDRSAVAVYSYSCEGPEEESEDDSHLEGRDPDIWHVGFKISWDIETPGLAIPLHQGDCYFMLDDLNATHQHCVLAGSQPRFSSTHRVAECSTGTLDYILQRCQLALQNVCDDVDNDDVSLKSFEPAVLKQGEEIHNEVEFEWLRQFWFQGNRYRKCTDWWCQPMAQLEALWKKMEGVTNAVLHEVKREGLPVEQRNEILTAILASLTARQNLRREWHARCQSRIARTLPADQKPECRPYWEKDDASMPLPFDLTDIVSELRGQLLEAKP

SMILES	pIC50 [1]	pIC50 [2]	pIC50 [3]	pIC50 (FTO)	Inhibition rate (FTO)	Inhibition rate (human small cell lung cancer SCLC-21H) ([1]; 50 μM, 72 h)	Inhibition rate (human bone marrow rhabdomyosarcoma cell RH30) ([3]; 50 μM, 72 h)	other results
Cc1noc(C)c1-c1cc(F)c(Nc2ccccc2C(=O)NO)c(F)c1 [Compound 39]	5.14	5.59	5.49	> 6.00	90%	–	–	–
CCN(CC)CCNC(=O)c1ccccc1Nc1c(Cl)cc(-c2cn[nH]c2)cc1Cl [Compound 81]	5.04	> 6.00	5.89	–	67%	83%	80%	–
Cc1noc(C)c1-c1cc(F)c(Nc2ccccc2C(=O)O)c(F)c1 [Compound 38]	5.38	> 6.00	5.04	> 6.00	100%	–	–	–
Cc1noc(C)c1-c1cc(Cl)c(Nc2ccccc2C(=O)NCCN2CCN(C)CC2)c(Cl)c1 [Compound 80]	> 6.00	5.70	5.70	–	29%	86%	82%	–
CCN(CC)CCNC(=O)c1ccccc1Nc1c(Cl)cc(-c2c(C)noc2C)cc1Cl [Compound 79]	> 6.00	5.59	5.59	–	–	80%	79%	–
Cc1n[nH]cc1-c1cc(Cl)c(Nc2ccccc2C(=O)NO)c(Cl)c1 [Compound 31]	5.14	5.21	5.44	> 5.30	70%	75%	70%	–
CCN(CC)CCNC(=O)c1cccnc1Nc1c(Cl)cc(-c2c(C)noc2C)cc1Cl [Compound 78]	5.29	5.06	4.83	–	–	–	–	–
Cc1noc(C)c1-c1cc(Cl)c(Nc2ccccc2C(=O)NO)c(Cl)c1 [Compound 25]	–	–	–	> 6.00	–	–	–	inhibition at 50 µM ([1]; Homo sapiens, SCLC-21H, 50 μM, 72 h, read-out: Inhibition rate (human small cell lung cancer SCLC-21H)): 78%; pIC50 ([1]; Homo sapiens, SCLC-21H): 5.62; pIC50 ([2]; Pancreatic cancer cell): 5.54; pIC50 ([3]; Homo sapiens, Rh30): 5.54; inhibition at 50 µM ([3]; Homo sapiens, Rh30, 50 μM, 72 h, read-out: Inhibition rate (human bone marrow rhabdomyosarcoma cell RH30)): 75%; inhibition at 50 µM (FTO; read-out: Inhibition rate): 46%
Cc1n[nH]c(C)c1-c1cc(Cl)c(Nc2ccccc2C(=O)NO)c(Cl)c1 [Compound 32]	5.68	5.25	5.28	–	–	70%	63%	–
CCN(CC)CCNC(=O)c1ccccc1Nc1c(Cl)cc(-c2cc(F)cc(F)c2)cc1Cl [Compound 83]	–	5.33	5.33	–	–	–	–	–
O=C(NO)c1ccccc1Nc1c(Cl)cc(-c2cn[nH]c2)cc1Cl [Compound 33]	5.15	5.66	5.39	> 6.00	63%	83%	86%	–
Cc1noc(C)c1-c1cc(Cl)c(Nc2ccccc2C(=O)NCCCN2CCOCC2)c(Cl)c1 [Compound 82]	5.00	> 6.00	5.80	–	29%	–	–	–
Cc1noc(C)c1-c1cc(Cl)c(Nc2ncccc2C(=O)NO)c(Cl)c1 [Compound 63]	–	–	–	–	35%	70%	68%	–
Cc1noc(C)c1-c1cc(Cl)c(Nc2nccnc2C(=O)O)c(Cl)c1 [Compound 65]	–	–	–	–	88%	52%	42%	–
O=C(O)c1ccccc1Nc1c(F)cc(-c2ccncc2)cc1F [Compound 37]	–	–	–	–	31%	60%	21%	–
Cc1noc(C)c1-c1cc(Cl)c(Nc2ccccc2-c2noc(=O)[nH]2)c(Cl)c1 [Compound 27]	–	–	–	> 6.00	–	14%	50%	–
Cc1n[nH]cc1-c1cc(Cl)c(Nc2ncccc2C(=O)O)c(Cl)c1 [Compound 57]	–	–	–	–	100%	47%	40%	–
